Experimental findings from patent US20040102454A1, “Phenylahistin and the phenylahistin analogs, a new class of anti-tumor compounds” (priority 1998, published 2004) are described below.

Data set [1] has as its system P388 murine leukemia cells. In words: Cytotoxic effects of the phenylahistin enantiomers (Example 8). In kind it is cell-based. Conditions: Mus musculus, (−) 92.2% e.e., (+) 97.8% e.e. An excerpt:
The cytotoxic effects of the enantiomers of phenylahistin on P388 murine leukemia cells were examined. […] Judging from the content of (−)-phenylahistin in (+)-phenylahistin, (+)-phenylahistin was considered to have relatively low cytotoxicity to P388 cells.

The subject of data set [2] is P388 cells. In words: Cell cycle progression of P388, flow cytometer. The class given is cell-based, murine. Conditions: 1×10^−5 M, 8-hour incubation; 97.8% e.e. Here is the method: The effect of phenylahistin on the cell cycle progression of P388 cells was also investigated using a flow cytometer, as described in Krishan, A., J. Cell Biol. (1975) 66, 188-193. P388 cells in the log growth phase were seeded into flasks and cultured for 14 hours, and then various concentrations of phenylahistin were added to each flask. After an 8-hour incubation, the cells were harvested and fixed with 50% MeOH at −20° C. overnight. The cells were washed with 30% MeOH and then with 10 mM PBS, and treated with 50 :g/ml propidium iodide at 4° C. for 2 hours. DNA histograms were obtained using a flow cytometer (Cyto ACE-300:JASCO).

Data set [3] relates to Microtubule protein from bovine brain. In words: Microtubule protein polymerization assay (turbidity). The class given is biochemical. Here is the method:
Microtubule protein was prepared from bovine brain tissue by two cycles of assembly and disassembly according to the method of Tiwari, S. C. et al. Anal. Biochem, (1993), 215, 96-103. Tubulin was purified from microtubule protein by phosphocellulose chromatography see Algaier, J. et al. Biochim. Biophys. Acta, (1988), 954, 235-43, and tubulin purity was evaluated by polyacrylamide gel electrophoresis, as in Laemmli, U.K., Nature, (1970), […], 680-85. […] Protein concentrations were determined using the Coomassie® Protein Assay Reagent from Pierce (Rockford, Ill.).
Polymerization of microtubule protein was monitored by an increase in turbidity at 37° C. in microtubule assembly buffer containing 100 mM MES, 0.5 mM MgCl2, 1 mM EGTA and 1 mM GTP. See Johnson, K. A. et al., J. Mol. Biol., (1977), 117, 1-31. Polymerization of purified tubulin was measured using the same method except the microtubule assembly buffer contained 4 M glycerol. See Lee, J. C. et al., Biochemistry, (1975), 14, 5183-87. Microtubule protein and tubulin polymerization was initiated by a temperature shift from 0° C. to 37° C. and turbidity was measured on a DU-20 thermocontrolled spectrophotometer from Beckman (Fullerton, Calif.) at 360 nm. Drugs were dissolved in dimethyl sulfoxide (DMSO), which was used in all experiments at a final concentration of 2% (v/v).
For this example, the microtubule protein polymerization assay was performed as follows. Microtubule protein was prepared from bovine brain tissue by two cycles of assembly and disassembly. Polymerization of microtubule protein was monitored by an increase in turbidity at 37° C. in microtubule assembly buffer containing 100 mM MES, 0.5 mM MgCl2, 1 mM EGTA and 1 mM GTP. The polymerization of microtubule protein was initiated by a temperature shift from 0° C. to 37° C. Turbidity was measured on a thermo-controlled spectrophotometer (Beckman DU-20, Fullerton, Calif.) at 360 nm. Compounds were dissolved in DMSO, which was used in all experiments at a final concentration of 2% (v/v).

For data set [4], the system named is seven human cancer cell lines. In words: Antiproliferative activity, MTT assay, all lines of Table 7. The class given is cell-based. Here is the method: (§1) In order to examine detailed biological activity, especially antitumor activity of both (+)- and (−)-phenylahistin, resolution of (+)- and (−)-phenylahistin using chiral HPLC was conducted. By repeating chiral separation twice or three times, each enantiomer with an optical purity over 99.8% was obtained, and each enantiomer was recrystallizes from ethanol-hexane mixture.
(§2) Antitumor activity of (+)- and (−)-phenylahistin was examined against seven human cancer cell lines including A431, WiDr, TE-671, Hela, MCF7, A-549 and K562 cells.

The test system of another data set is A-431 (damal). In words: Antiproliferative activity, MTT assay (Table 7). In kind it is cell-based. Conditions: Homo sapiens, optical purity over 99.8%. The procedure: as §1, §2
In a further data set the test system is Hela (ovary). The data set is described as follows: Antiproliferative activity, MTT assay (Table 7). In kind it is cell-based. Conditions: Homo sapiens, optical purity over 99.8%. The procedure:
as §1, §2

A further data set deals with K562 (leukemia). In words: Antiproliferative activity, MTT assay (Table 7). In kind it is cell-based. Particulars: Homo sapiens, optical purity over 99.8%. The procedure: as §1, §2
Another data set relates to MCF7 (breast). In words: Antiproliferative activity, MTT assay (Table 7). Conditions: Homo sapiens, optical purity over 99.8%. In kind it is cell-based. Here is the method: as §1, §2
The next data set concerns WiDr (colon). The data set is described as follows: Antiproliferative activity, MTT assay (Table 7). The class given is cell-based. Conditions: Homo sapiens, optical purity over 99.8%. The procedure:
as §1, §2

A further data set relates to TE-671 (CNS). The data set is described as follows: Antiproliferative activity, MTT assay (Table 7). In kind it is cell-based. Particulars: Homo sapiens, TE-671, TE-671 (CNS), optical purity over 99.8%. The procedure: as §1, §2
In the next data set the test system is A549 (lung). In words: Antiproliferative activity, MTT assay (Table 7). The class given is cell-based. Conditions: Homo sapiens, optical purity over 99.8%. Here is the method: as §1, §2
Data set [5] relates to A-431 human pudendal epithelial squamous cancer cells. In words: Cell proliferation inhibiting effect, MTT (Example 5). In kind it is cell-based. Particulars: A-431, 48-hours incubation. Here is the method:
(§3) K-562, human chronic myelogenic leukemia cells were cultured in […] culture medium (containing 10% bovine fetus serum) and A-431 human pudendal epithelial squamous cancer cells were cultured in DMEM culture medium, containing 10% bovine fetus serum. To these a continuous dilution series of the (+)-phenylahistin obtained in EXAMPLE 1 was added. After 48-hours incubation, a MTT reagent was added to measure growth.

Data set [6] deals with K-562, human chronic myelogenic leukemia cells. Described as above. Conditions: K562, K-562, 48-hours incubation. In kind it is cell-based. Here is the method:
as §3

Data set [7] relates to P388 cells. In words: P388 proliferation, Alamar Blue assay. The class given is cell-based, murine. Conditions: Mus musculus, P388. The procedure: For this example, the Alamar Blue™ assay was performed as follows. Exponentially growing P388 cells were seeded into 96-well tissue culture plates (5×10^3 cells/100 μl/well) and cultured in RPMI 1640 medium supplemented with 10% fetal bovine serum for 16 h. Compounds (DMSO solution) were then added to each well at various concentrations, and the cells were cultured for an additional 48 h. Living cells were counted using Alamar Blue™ (BioSource International, Camarillo, Calif.), according to the method of Ahmed, S. A. et al., J. Immunol. Methods, 170, 211 (1994).

Data set [8] concerns MES-SA DX (Taxol Resistant) human uterine sarcoma tumor cell line. The data set is described as follows: Drug resistant cell line pair, cytotoxicity. In kind it is cell-based. The source says: MES-SA (Taxol Sensitive) and MES-SA DX (Taxol Resistant). This cell line expresses elevated mdr-1 mRNA and P-glycoprotein (an extrusion pump mechanism). Pretreatment with cyclosporin-A (CsA) blocks P-glycoprotein and reinstates activity in the resistant cell line for those compounds for which the resistance is due to elevated P-glycoprotein.

In data set [9] the test system is HL-60/MX-2 (Mitoxantrone-Resistant) human acute promyelocytic leukemia cell line. The data set is described as follows: Drug resistant cell line pair, cytotoxicity. The class given is cell-based. An excerpt: HL-60 (Mitoxantrone-Sensitive) and HL-60/MX-2 (Mitoxantrone-Resistant) This cell line is considered to have atypical drug resistance properties with altered topoisomerase II catalytic activity without overexpression of P-glycoprotein.

Data set [10] has as its system Jurkat cells. The data set is described as follows: Cytotoxicity in Jurkat cells. Particulars: Homo sapiens, read-out: Cytotoxicity Potency IC50.
Data set [11] relates to HL-60 (Mitoxantrone-Sensitive) human acute promyelocytic leukemia cell line. The data set is described as follows: Drug resistant cell line pair, cytotoxicity. In kind it is cell-based. Particulars: Homo sapiens; HL-60 Sensitive. An excerpt:
2) Human Acute Promyelocytic Leukemia Cell Line Pair: HL-60 (Mitoxantrone-Sensitive) and HL-60/MX-2 (Mitoxantrone-Resistant)
This cell line is considered to have atypical drug resistance properties with altered topoisomerase II catalytic activity without overexpression of P-glycoprotein.

Data set [12] concerns Jurkat cells.

SMILES strings stand for the structures. Converted amounts (≈) assume the structure as drawn. “And” between values parts separate entries of the source, which are not always exact repeats. Identical values can stand only once. Like-named read-outs stand apart in the source and are kept apart here. Bounds are passed on as bounds.

Regarding `C=CC(C)(C)c1[nH]cnc1/C=C1\NC(=O)[C@@H](Cc2ccccc2)NC1=O` [(+)-phenylahistin], the IC50 in data set [1] is 38 µM; in data set [3] (microtubule protein 1.5 mg/mL (Table 9), read-out: IC50 Microtubule Protein polymerization), > 200 µM; in data set [3] (microtubule protein 1.5 mg/ml (Table 4), read-out: IC50 for Microtubule Protein Polymerization) it was > 200 µM; in the data set with A-431 (damal), 20 µM; in the data set with Hela (ovary), 10 µM; in the data set on K562 (leukemia), 10 µM. Also, the IC50 came to 11 µM in the data set with MCF7 (breast); 8.5 µM with WiDr (colon); 130 µM with TE-671 (CNS); 30 µM in the data set with A549 (lung); 2.9 µg/mL (≈ 8.28 µM) in [5]; 13.3 µg/mL (≈ 38 µM) in [6]. Moreover, the IC50 worked out at 10 µM in the data set on P388 cells [7] (Alamar Blue assay (Table 4), read-out: IC50 for P388 Proliferation) and 10 µM in the data set with P388 cells [7] (means (±SEM) of three experiments (Table 9), read-out: IC50 P388 proliferation). For the same molecule, the “cell cycle inhibitory activity (G2/M)” value with P388 cells [2] is “no effect”. Moreover, in data set [3] (200 μM), the “inhibition percentage at 200 μM, microtubule protein polymerization” value is 15%. Also, in [3] (concentrations up to 200 μM), the microtubule assembly entry is on record as “did not affect microtubule assembly”. Also, the “fold less activity than (−)-PLH” value in data set [4] fell in the range of 33 to 100 fold.

On to `O=C1c2c(O)ccc(O)c2C(=O)c2c(NCCNCCO)ccc(NCCNCCO)c21` [Mitoxantrone, reference compound], for which the “reduced susceptibility of the MES-SA DX cell line” value in data set [8] was 20 fold. The “Ratio to Sensitive” value in [9] (HL-60 Resistant versus Sensitive) is 24 and 24.1. Besides, the IC50 in data set [9] (Homo sapiens, HL60/MX2, HL-60 Resistant) is 4.87 µM; with Jurkat cells [10] it was 0.041 µM; in data set [11] it was 0.202 µM. Also, in the data set on Jurkat cells [12], the “Cytotoxicity Efficacy % Cell Death” value worked out at 99%.
